The results in this text go back to patent US10562857B2 (AFASCI, Inc., priority 2015, dated 2020).

SMILES strings stand for the structures. Some results are limits rather than exact numbers.

Test [1] addresses Cav2.2 (N-type Ca channel) (Homo sapiens, UniProt Q00975). As to the kind of experiment: Patch clamp of Cav2.2 N-type Ca channel. As to conditions: Table 2. The class given is cell-based.
Another test deals with DRG ion channels Na+. Put plainly: Sodium currents in DRG neurons, patch clamp. In kind it is cell-based, rodent. As to conditions: Table 2. The method, then: All the procedures related to animal handling were in strict accordance with NIH guidelines and IACUC approved protocols. Briefly, the spine was taken out and split into two halves from the middle line after sacrificing the mice by decapitation. […] The DRG neurons were minced with fine scissors and incubated at 35° C. for 50 min. […] Finally the cells were dispersed onto poly-1-ornithine-coated cover slips and maintained in a modified Krebs solution with streptomycin sulfate (0.2 mM), Penicillin G Sodium (0.3 mM), and Gentamycin (0.1 mM) at 21° C. […] All experiments were performed at room temperature (around 21° C.). Whole-cell currents were recorded using a MultiClamp 700B amplifier and analyzed offline with pCLAMP10.4 software (Molecular Devices, LLC, Sunnyvale Calif., USA). […] The internal solution was composed (in mM) of 125 CsCl, 10 HEPES (acid), 10 EGTA (ethylene glycol tetraacetic acid), 1 CaCl2, 1 MgCl2, 4 MgATP and 0.3 […] 7.3-7.4 adjusted with CsOH; osmolality verified as 295 mOsm/kg). Since the sodium ions were absent in the external solution, tetrodoctoxin was not needed. […] To record sodium (Na^+) currents in DRG neurons, the external solution used the modified Krebs solution specified above. […] To record potassium currents in DRG neurons, the external solution used the modified Kreb's solution specified above. The internal solution was composed (in mM) of 65 KCl, 80 KF, 5 KOH, 10 EGTA, 2 MgATP (pH 7.3-7.4 adjusted with KOH). Recording electrodes were fabricated using a P-87 puller (Sutter Instrument Co., Novato, Calif., USA). […] All reagents were purchased from Sigma unless specified otherwise. […] Selectivity among the three subtypes of the Cav3 T-type channel, and off-target effects on other key ion channels of the representative example compounds are presented in Table 2. Sodium and potassium channels in the rodent DRG neurons were recorded and tested as described above. The human ether-a-go-go-related gene (hERG) encodes the rapidly activating potassium channel (IKr) contributing to the repolarization of the cardiac action potential. The blockade of hERG can lead to a QT prolongation in the electrocardiogram known as long QT syndrome (Sanguinetti, et al., 1995). Therefore the representative example compounds in Table 2 were tested against the hERG channel.

The next test concerns the target T1, Cardiac Na+ channels (Homo sapiens, UniProt Q14524).
T1 construct: host or cells: human iPSC-derived cardiomyocytes
Put plainly: Cardiac sodium currents in human iPSC-derived cardiomyocytes. The class given is cell-based. As to conditions: for IC50: human iPSC cardiomyocytes; for inhibition at 3 µM: values in brackets, read-out: Cardiac Na+ (%) inh. at 3 μM. The method, then:
Cardiac sodium channels play a critical role in heart contraction. Inhibition of these sodium channels could potentially cause severe unwanted side effects. Therefore the representative example compounds in Table 2 were tested in cardiac sodium channels. Cardiomyocytes derived from human induced pluripotent stem cells (iPSC-CM) were obtained from Axol Bioscience Ltd (Cambridge, UK). Cells were thawed and grown on matrigel coated glass coverslips in Cardiomyocyte Maintenance Medium (Axol Bioscience). […] The internal solution was composed (in mM) of 120 KF, 10 HEPES, 11 EGTA, 1 CaCl2, 1 MgCl2, 10 TEA-Cl (pH 7.2 adjusted with KOH). Sodium currents were recorded at a holding potential of −100 mV and depolarized to −20 mV. Cells were incubated with example compounds until currents reached a steady-state level. To determine IC50 values, example compounds were applied gradually from low to high concentrations. The current responses were normalized to the control, percent inhibition was calculated and a sigmoidal dose response curve was plotted to determine IC50 values as described above.

T1 sequence (Q14524 whole entry): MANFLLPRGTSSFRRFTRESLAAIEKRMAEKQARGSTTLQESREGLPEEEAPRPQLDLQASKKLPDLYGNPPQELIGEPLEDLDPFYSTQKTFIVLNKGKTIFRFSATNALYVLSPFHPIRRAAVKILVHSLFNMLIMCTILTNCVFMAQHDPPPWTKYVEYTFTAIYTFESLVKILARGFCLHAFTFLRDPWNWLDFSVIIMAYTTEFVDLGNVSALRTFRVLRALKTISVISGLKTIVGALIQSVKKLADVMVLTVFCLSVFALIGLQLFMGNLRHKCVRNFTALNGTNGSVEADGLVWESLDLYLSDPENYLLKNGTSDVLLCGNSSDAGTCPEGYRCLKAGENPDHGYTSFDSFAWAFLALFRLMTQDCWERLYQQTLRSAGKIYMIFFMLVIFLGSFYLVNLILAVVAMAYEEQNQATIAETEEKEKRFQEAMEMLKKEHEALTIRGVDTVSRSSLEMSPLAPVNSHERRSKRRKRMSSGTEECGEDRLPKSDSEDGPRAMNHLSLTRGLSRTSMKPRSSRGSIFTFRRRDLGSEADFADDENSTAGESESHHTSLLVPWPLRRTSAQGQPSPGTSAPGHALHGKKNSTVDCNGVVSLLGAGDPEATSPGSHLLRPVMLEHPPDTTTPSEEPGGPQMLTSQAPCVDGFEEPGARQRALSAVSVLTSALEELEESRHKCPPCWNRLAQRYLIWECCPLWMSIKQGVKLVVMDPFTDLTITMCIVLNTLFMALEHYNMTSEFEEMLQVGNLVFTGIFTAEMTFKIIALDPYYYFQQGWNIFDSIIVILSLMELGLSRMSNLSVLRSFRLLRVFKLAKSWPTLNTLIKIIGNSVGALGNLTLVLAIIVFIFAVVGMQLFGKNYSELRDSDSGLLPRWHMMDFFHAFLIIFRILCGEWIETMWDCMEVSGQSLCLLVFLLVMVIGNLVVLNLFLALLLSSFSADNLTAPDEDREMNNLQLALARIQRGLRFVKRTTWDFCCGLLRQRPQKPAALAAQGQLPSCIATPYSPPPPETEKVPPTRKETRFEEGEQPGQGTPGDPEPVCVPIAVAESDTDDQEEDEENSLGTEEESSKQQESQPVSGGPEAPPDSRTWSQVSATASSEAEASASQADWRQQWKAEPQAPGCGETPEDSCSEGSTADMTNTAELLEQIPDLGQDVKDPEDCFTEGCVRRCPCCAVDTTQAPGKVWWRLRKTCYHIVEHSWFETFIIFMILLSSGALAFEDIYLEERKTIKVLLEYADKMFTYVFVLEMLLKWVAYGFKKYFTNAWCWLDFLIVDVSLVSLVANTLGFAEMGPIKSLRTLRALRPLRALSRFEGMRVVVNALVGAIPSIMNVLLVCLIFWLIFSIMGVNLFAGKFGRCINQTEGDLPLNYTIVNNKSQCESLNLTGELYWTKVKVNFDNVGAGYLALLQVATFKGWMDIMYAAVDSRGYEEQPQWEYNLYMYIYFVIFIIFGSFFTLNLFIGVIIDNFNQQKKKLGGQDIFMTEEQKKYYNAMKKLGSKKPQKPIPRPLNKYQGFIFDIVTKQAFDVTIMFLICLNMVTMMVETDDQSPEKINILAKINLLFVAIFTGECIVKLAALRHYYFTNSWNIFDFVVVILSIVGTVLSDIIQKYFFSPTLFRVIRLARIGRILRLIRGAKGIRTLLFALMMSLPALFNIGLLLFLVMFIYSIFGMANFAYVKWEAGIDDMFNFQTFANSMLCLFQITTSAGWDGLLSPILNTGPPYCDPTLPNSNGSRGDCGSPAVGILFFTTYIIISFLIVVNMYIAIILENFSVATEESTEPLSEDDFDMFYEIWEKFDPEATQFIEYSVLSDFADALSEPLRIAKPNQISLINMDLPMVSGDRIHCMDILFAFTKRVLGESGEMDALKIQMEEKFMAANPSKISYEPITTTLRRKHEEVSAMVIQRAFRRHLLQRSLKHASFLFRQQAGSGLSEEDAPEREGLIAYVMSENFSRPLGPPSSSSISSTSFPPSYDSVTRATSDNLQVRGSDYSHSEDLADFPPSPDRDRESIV

Consider `CC(C)(C)NC(=O)CN1CCC2(CC1)C[C@H]2NC(=O)c1cc(F)cc(C(F)(F)F)c1` (single isomer, unassigned) [Example 130, (R)—N-(6-(2-(tert-Butylamino)-2-oxoethyl)-6-azaspiro[2.5]octan-1-yl)-3-fluoro-5-(trifluoromethyl)benzamide or (S)—N-(6-(2-(tert-Butylamino)-2-oxoethyl)-6-azaspiro[2.5]octan-1-yl)-3-fluoro-5-(trifluoromethyl)benzamide], for which the values for the IC50 (in test [1]; with DRG ion channels Na+; against Cardiac Na+ channels) were greater than 30 µM, greater than 100 µM and 31.4 µM, respectively.
For `CC(C)(C)CCN1C[C@@H]2[C@@H](CNC(=O)c3cc(Cl)cc(Cl)c3)[C@@H]2C1` [ML218, 3,5-Dichloro-N-[[(1α,5α,6-exo,6α)-3-(3,3-dimethylbutyl)-3-azabicyclo[3.1.0]hex-6-yl]methyl]benzamide, reference compound] the same measures were 20.7 µM, 55.6 µM and 39.8 µM.
Take `CC(C)(C)NC(=O)CN1CCC2(CC1)CC2C(=O)Nc1cc(F)cc(C(F)(F)F)c1` (stereo not shown) [Example 141, 6-(2-(tert-Butylamino)-2-oxoethyl)-N-(3-fluoro-5-(trifluoromethyl)phenyl)-6-azaspiro[2.5]octane-1-carboxamide]: the IC50 in test [1] is 5.1 µM; in the test on DRG ion channels Na+ it was greater than 30 µM. Further, the inhibition at 3 µM on Cardiac Na+ channels was determined as 28%.
For `CC(C)(C)CCN1CCC2(CC1)C[C@H]2NC(=O)c1cc(C(F)(F)F)cc(C(F)(F)F)c1` (single isomer, unassigned) [Example 146, (R)—N-(6-(3,3-dimethylbutyl)-6-azaspiro[2.5]octan-1-yl)-3,5-bis(trifluoromethyl)benzamide or (S)—N-(6-(3,3-dimethylbutyl)-6-azaspiro[2.5]octan-1-yl)-3,5-bis(trifluoromethyl)benzamide], the IC50 came out at 2.5 µM in test [1], 8.7 µM in the test with DRG ion channels Na+ and 27.8 µM on Cardiac Na+ channels.
Turning to `CC(C)(C)NC(=O)CN1CCC(CNC(=O)c2cc(F)cc(Cl)c2)CC1` [Z944, reference compound], the half-maximal inhibitory concentration (IC50) in test [1] is greater than 30 µM; with DRG ion channels Na+, greater than 30 µM; against Cardiac Na+ channels, 21.4 µM.
`CC(C)(C)NC(=O)CN1CCC2(CC1)C[C@H]2NC(=O)c1cc(Cl)cc(Cl)c1` (single isomer, unassigned) [Example 57, (R)—N-(6-(2-(tert-Butylamino)-2-oxoethyl)-6-azaspiro[2.5]octan-1-yl)-3,5-dichlorobenzamide or (S)—N-(6-(2-(tert-Butylamino)-2-oxoethyl)-6-azaspiro[2.5]octan-1-yl)-3,5-dichlorobenzamide]: the results for the IC50 (in test [1]; with DRG ion channels Na+; against Cardiac Na+ channels) were greater than 30 µM, 37.2 µM and 50.9 µM, respectively.
On to `CC(C)(C)CCN1CCC2(CC1)C[C@H]2NC(=O)c1cc(C(F)(F)F)ccc1Cl` (single isomer, unassigned) [Example 147, (R)-2-Chloro-N-(6-(3,3-dimethylbutyl)-6-azaspiro[2.5]octan-1-yl)-5-(trifluoromethyl)benzamide or (S)-2-Chloro-N-(6-(3,3-dimethylbutyl)-6-azaspiro[2.5]octan-1-yl)-5-(trifluoromethyl)benzamide], for which the IC50 in test [1] was found to be 5.6 µM; in the test with DRG ion channels Na+, 14.3 µM; against Cardiac Na+ channels, 43 µM.
With `CC(C)(C)NC(=O)CN1CCC2(CC1)C[C@H]2NC(=O)C12CC3CC(CC(C3)C1)C2` (single isomer, unassigned) [Example 145, N—((R)-6-(2-(tert-butylamino)-2-oxoethyl)-6-azaspiro[2.5]octan-1-yl)adamantane-1-carboxamide or N—((S)-6-(2-(tert-butylamino)-2-oxoethyl)-6-azaspiro[2.5]octan-1-yl)adamantane-1-carboxamide], the half-inhibitory concentration (IC50) was 15.6 µM in test [1] and greater than 30 µM with DRG ion channels Na+. The inhibition at 3 µM at Cardiac Na+ channels is 0%.
In the case of `CC(C)(C)CCN1CCC2(CC1)CC2NC(=O)c1cc(F)cc(Cl)c1` (stereo not shown) [Example 28, 3-Chloro-N-(6-(3,3-dimethylbutyl)-6-azaspiro[2.5]octan-1-yl)-5-fluorobenzamide], the values for the IC50 (in test [1]; in the test on DRG ion channels Na+; at Cardiac Na+ channels) were 9.4 µM, 23.4 µM and 37.2 µM, respectively.
Consider `CC(C)(C)NC(=O)CN1CCC2(CC1)C[C@H]2NC(=O)c1cc(F)cc(Cl)c1` (single isomer, unassigned) [Example 129, (R)—N-(6-(2-(tert-Butylamino)-2-oxoethyl)-6-azaspiro[2.5]octan-1-yl)-3-chloro-5-fluorobenzamide or (S)—N-(6-(2-(tert-Butylamino)-2-oxoethyl)-6-azaspiro[2.5]octan-1-yl)-3-chloro-5-fluorobenzamide], for which the IC50 in test [1] is greater than 30 µM; in the test with DRG ion channels Na+, greater than 100 µM.
For the molecule `CC(C)(C)NC(=O)CN1CCC2(CC1)CC2NC(=O)c1cc(F)cc(Cl)c1` (single isomer, unassigned) [Example 128, (S)—N-(6-(2-(tert-Butylamino)-2-oxoethyl)-6-azaspiro[2.5]octan-1-yl)-3-chloro-5-fluorobenzamide or (R)—N-(6-(2-(tert-Butylamino)-2-oxoethyl)-6-azaspiro[2.5]octan-1-yl)-3-chloro-5-fluorobenzamide], the half-inhibitory concentration (IC50) in test [1] was greater than 10 µM; in the test with DRG ion channels Na+, greater than 100 µM; at Cardiac Na+ channels it was 83.5 µM.
For `CC(C)(C)NC(=O)CN1CCC2(CC1)C[C@H]2NC(=O)c1cc(C(F)(F)F)cc(C(F)(F)F)c1` (single isomer, unassigned) [Example 144, ((R)—N-(6-(2-(tert-butylamino)-2-oxoethyl)-6-azaspiro[2.5]octan-1-yl)-3,5-bis(trifluoromethyl)benzamide or (S)—N-(6-(2-(tert-butylamino)-2-oxoethyl)-6-azaspiro[2.5]octan-1-yl)-3,5-bis(trifluoromethyl)benzamide] the same measures were 12.3 µM, 34.4 µM and 19.2 µM.
Take `CC(C)(C)NC(=O)CN1CCC2(CC1)CC2NC(=O)c1cc(F)cc(Cl)c1` (stereo not shown) [Example 17, N-(6-(2-(tert-Butylamino)-2-oxoethyl)-6-azaspiro[2.5]octan-1-yl)-3-chloro-5-fluorobenzamide]: the half-maximal inhibitory concentration (IC50) is greater than 30 µM in test [1] and greater than 100 µM in the test with DRG ion channels Na+.
With `CC(C)(C)NC(=O)CN1CCC2(CC1)C[C@H]2C(=O)Nc1cc(C(F)(F)F)cc(C(F)(F)F)c1` (single isomer, unassigned) [Example 132, (R)—N-(3,5-Bis(trifluoromethyl)phenyl)-6-(2-(tert-butylamino)-2-oxoethyl)-6-azaspiro[2.5]octane-1-carboxamide or (S)—N-(3,5-Bis(trifluoromethyl)phenyl)-6-(2-(tert-butylamino)-2-oxoethyl)-6-azaspiro[2.5]octane-1-carboxamide], the IC50 in test [1] is 3.1 µM; in the test on DRG ion channels Na+, 14.3 µM; on Cardiac Na+ channels, 51.6 µM.
